According to patent US20160279175A1, “METHODS FOR REDUCING DEVELOPMENT OF RESISTANCE TO ANTIBIOTICS” (REGENTS OF THE UNIVERSITY OF MINNESOTA, priority 2015, published 2016):
Bridge positions count the residues as written; N and C are the ends. Ends that are not written are not given here.

Key:
[1] = system: vancomycin-resistant E. faecium; format: cell-based, Enterococcus faecium; conditions: for synergy of the AMPs with the antibiotic: antibiotic combined with supernatant containing the three AMPs, data not shown; for activity of antibiotic alone against E. faecium: clinically relevant concentrations: 50 μg/mL streptomycin, 100 μg/mL ampicillin, 30 μg/mL rifampicin; for reduction of E. faecium counts, antibiotic combined with the three peptides: combination with Enterocin A, Enterocin P, Hiracin JM79
Description: L. lactis containing pNZCA3 was grown overnight in BHI. Cells were then re-inoculated in fresh BHI at an OD600 of 0.07-0.1. Because BHI contains ˜0.15 M NaCl, no additional salt was added for induction. Cells were then grown ˜6 hours then cell-free culture supernatant was obtained by centrifugation of culture at 12,000×g at 4° C. for 10 min, filtered through 0.2 μm pore-size filters (Whatman Int. Ltd., Maidstone, UK), and stored at −20° C. until use.
E. faecium was grown overnight in BHI at 37° C. and L. lactis-pNZCA3 was grown in BHI at 32° C. E. faecium was then inoculated at an OD600 of ˜0.06 into 5 ml fresh BHI broth, and allowed to grow to an OD600 of ˜0.1. For antibiotic experiments, 50 μg/mL streptomycin (Chem-Implex Int'l Inc., Wood Dale, Ill., U.S.A.), 100 μg/mL ampicillin (Sigma), or 30 μg/mL rifampicin (Gilbert et al., 2013, The Sanford Guide to Antimicrobial Therapy 2013 43 Pocth Edition|Rent 9781930808744|11930808747. Antimicrob. Ther.) were added to the fresh BHI broth. Cultures were then supplemented with 10% of the previously obtained supernatant or 10% of L. lactis-pNZCA3 culture at an OD600 of ˜0.1 (time=0 hours). […] Samples of the cultures were then taken at different times, serial diluted, and plated (10 μL of each dilution) on GM17 plates containing 5 μg/mL rifampicin (GM17-Rif) or 5 μg/mL chloramphenicol (GM17-Cm) and incubated overnight at 37° C. The following day E. faecium or L. lactis colony forming units (CFU) were counted on GM17-Rif and GM17-Cm plates, respectively.
Data for FIG. 9 represent technical triplicates obtained from one of three individual tests.

[2] = system: wild type E. faecium 8E9 and EntA/EntP/HirJM79-resistant mutant of E. faecium 8E9; assay: Agar diffusion assay of pure Enterocin B; format: cell-based, Enterococcus faecium; conditions: 1 μg and 0.1 μg enterocin B
Description: For the agar diffusion activity assays, liquid brain heart infusion (BHI) agar was inoculated with 0.5 μL of E. faecium overnight culture per mL medium. The inoculated agar was then poured into a petri dish and allowed to solidify. For all L. lactis halos, a colony of L. lactis was touched with a sterile pipette tip then stabbed into the inoculated agar. For purified EntB halos (FIG. 14 only), 1 μL of the appropriate EntB concentration was dropped onto the inoculated agar and allowed to dry completely. Dry plates were then covered and incubated overnight at 37° C. for imaging the following day.

Compound | synergy of the AMPs with the antibiotic [1] | activity of antibiotic alone against E. faecium [1] | reduction of E. faecium counts, antibiotic combined with the three peptides [1] | halo size, wild type versus class IIa resistant mutant [2]
CC1(C)S[C@@H]2[C@H](NC(=O)[C@H](N)c3ccccc3)C(=O)N2[C@H]1C(=O)O [ampicillin] | minor | none of these drugs showed significant activity | did not exhibit similarly impressive reductions | 
O=C(N[C@H](CO)[C@H](O)c1ccc([N+](=O)[O-])cc1)C(Cl)Cl [chloramphenicol] |  |  | did not exhibit similarly impressive reductions | 
CC[C@H]1OC(=O)[C@H](C)[C@@H](O[C@H]2C[C@@](C)(OC)[C@@H](O)[C@H](C)O2)[C@H](C)[C@@H](O[C@@H]2O[C@H](C)C[C@H](N(C)C)[C@H]2O)[C@](C)(O)C[C@@H](C)C(=O)[C@H](C)[C@@H](O)[C@]1(C)O [erythromycin] |  |  | did not exhibit similarly impressive reductions | 
[H]/N=C(/N)N[C@H]1[C@H](O)[C@@H](O)[C@H](O[C@@H]2O[C@@H](C)[C@](O)(C=O)[C@H]2O[C@@H]2O[C@@H](CO)[C@H](O)[C@@H](O)[C@@H]2NC)[C@@H](N/C(N)=N\[H])[C@@H]1O [streptomycin] | minor | none of these drugs showed significant activity |  | 
Enterocin B: 53 amino acid bacteriocin of Enterococcus faecium, SEQ ID NO:42, disulfide bridge 23-52, synthesized by Ontores (ENDHRMPNELNRPNNLSKGGAKCGAAIAGGLFGIPKGPLAWAAGLANVYSKCN; disulfide 23-52) |  |  |  | similarly sized halos for both the wild type and resistant mutant
